Experimental data from PubChem BioAssay AID179 (DTP/NCI, 2004).
pEC50, pIC50: −log10 of the molar value. Active and inactive are the calls of the source.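 The calls were made as follows: active = compounds giving half or more protection of infected cells from virus-caused growth loss, again on retest; inactive = the rest.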

System: CEM cells HIV-1 protection, formazan growth assay
Assay: NCI AIDS Antiviral Assay
Details: for pIC50: measured here: growth of uninfected CEM cells
Summary of the method: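 Human CEM cells, uninfected and HIV-1-infected, exposed to five drug concentrations; growth measured by soluble formazan assay and scored as percent protection from infection, with protecting compounds retested.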

Structure (SMILES) | pEC50 | pIC50 | outcome
CCOC(=O)/C(C#N)=C/Nc1c(C)n(C)n(-c2ccccc2)c1=O | < 3.70 | < 3.70 | 
COC(=O)/C=C\c1ccc2c(c1)CC1(C2)Cc2ccc(/C=C/C(=O)OC)cc2C1 (stereo not drawn) | < 3.70 | < 3.70 | 
O=c1[nH]cnc2c1ncn2C1CCC2(CO)CC12 (stereo not drawn) | < 4.30 | < 4.30 | 
CCN(CCCl)CCCNc1c2ccccc2nc2ccc(OC)cc12 | < 4.70 | 6.53 | 
CCC[CH2][Ge]([CH2]CCC)([CH2]CCC)[O]C(=O)C(O)c1ccccc1 (stereo not drawn) | 5.31 | 4.92 | 
CN1CCc2ccccc2C(C(=O)c2ccc3c(c2)OCO3)C1=O (stereo not drawn) | < 3.81 | 3.97 | 
CN(C)/N=C1\C=C2CC[C@H](O[Si](C)(C)C(C)(C)C)[C@@]2(C)CC1 | < 3.70 | 4.91 | 
N#CC12Cc3ccc4c(c3-c3cccc(c31)CCN2C(=O)c1ccccc1)OCO4 (stereo not drawn) |  |  | inactive
Cc1ccccc1S(=O)(=O)N1CCN(S(=O)(=O)c2ccccc2C)CC1 | < 3.70 | < 3.70 | 
S=C(Nc1ccc(Br)cn1)NC12CC3CC(CC(C3)C1)C2 | < 3.70 | 4.16 | 
Cc1cn(COCCCO)c(=O)[nH]c1=O | < 3.70 | < 3.70 | 
O=C(/C=C/c1cccs1)c1ccc(C(=O)/C=C/c2cccs2)cc1 | < 3.70 | 4.34 | 
CN1C(=O)c2ccccc2OC12C=Cc1c(ccc3ccccc13)O2 (stereo not drawn) | < 3.71 | 4.85 | 
CCc1[nH]c(=O)c2oc3cc4ccccc4cc3c2c1C(=O)O | < 3.70 | < 3.70 | 
OC1(c2ccccc2)CCCCCCCCC(O)(c2ccccc2)CCCCCCCC1 (stereo not drawn) | < 3.70 | < 3.70 | 
OCCN(CCO)c1cccc(N(CCO)CCO)n1 |  |  | inactive
O=C1OCc2cnccc21 | < 2.73 | < 2.73 | 
O=C(NC1CN2CCC1CC2)C(c1ccc(F)cc1)c1ccc(F)cc1 (stereo not drawn) | < 3.70 | 5.27 | 
CONC(C)=O | < 3.70 | < 3.70 | 

Structure (SMILES) | pEC50 | pIC50 | outcome
O=C(O)c1cc2cc([N+](=O)[O-])ccc2oc1=O | < 3.35 | < 3.35 | 
O=C(CCc1ccccc1)n1cccc1CO | < 3.70 | 4.25 | 
Cl[Si]1(Cl)Oc2ccccc2O[Si](Cl)(Cl)Oc2ccccc2O1 | < 4.90 | < 4.90 | 
C=CCOc1ccc(C2c3c([nH][nH]c3=O)CC(O)(OCC)C2C(=O)OCC)cc1OC (stereo not drawn) | < 3.70 | < 3.70 | 
C1C2CC3CC1CC(Nc1nc(NC45CC6CC(CC(C6)C4)C5)nc(NC45CC6CC(CC(C6)C4)C5)n1)(C2)C3 | < 3.70 | 4.38 | 
N#CC(NNC(=O)c1ccccc1O)c1ccc(O)cc1 (stereo not drawn) | < 3.48 | 5.71 | 
CC(O)C1OC(O)C2OC(C)(C)OC12 (stereo not drawn) | < 3.70 | < 3.70 | 
COc1ccc(C(c2c(O)c3ccccc3oc2=O)c2c(O)c3ccccc3oc2=O)c(OC)c1 | < 3.70 | 4.07 | 
O=C1CC2C(=O)N(Cc3ccccc3)C1C(S(=O)(=O)c1ccccc1)C2S(=O)(=O)c1ccccc1 (stereo not drawn) |  |  | inactive
O=c1[nH]nc(Cc2ccccc2)n1-n1cnnc1 | < 3.70 | < 3.70 | 
Cc1n[nH]c(C)c1N=O | < 3.70 | 5.37 | 
CCOC(=O)/C(C#N)=C/c1ccc([N+](=O)[O-])cc1 | < 4.67 | < 4.67 | 
CC(=O)N(C)C(c1ccccc1)(c1ccccc1)c1ccccc1 | < 3.70 | 4.45 | 
CC(=O)C1C(=O)C(=O)N(c2ccc([N+](=O)[O-])cc2)C1=O (stereo not drawn) | < 3.70 | < 3.70 | 
O=c1c2cncnc2sc2nccn12 | < 3.70 | < 3.70 | 
CCN(CC)CC(=O)Nc1ccc(CO)cc1 | < 3.70 | < 3.70 | 
O=S(=O)(Nc1nnc2ccc3ccccc3n12)c1ccc(F)cc1S | < 3.70 | 3.96 | 
OCCN(CCO)c1ncnc2c1sc(=S)n2-c1ccccc1 | < 3.14 | 3.55 | 
O=c1[nH]c(=O)n(C2CC(O)C(CO)O2)cc1OCCc1ccccc1 (stereo not drawn) | < 3.70 | < 3.70 | 
